Results as given in ChEMBL document CHEMBL1153812, “Hydrolytic cleavage of DNA by urea-bridged macrocyclic polyamines” (Eur J Med Chem, 2009).
Calls of active or inactive are those of the source. The rule behind the calls is not given here.

Assays:
Assay type in all cases: nucleic-acid assay
[1] = system: Nucleic Acid; experiment: Induction of supercoiled Escherichia coli pUC19 DNA cleavage assessed as formation of open-circular DNA at 357 uM after 36 hrs by agarose gel electrophoresis
[2] = system: Nucleic Acid; experiment: Binding affinity to calf thymus duplex DNA assessed as change in viscosity of DNA at 20 mM by viscometric analysis; settings: Bos taurus
[3] = system: Nucleic Acid; experiment: Binding affinity to calf thymus duplex DNA assessed as thermal melting temperature at 0.11 mM by UV-visible spectrophotometry; settings: Bos taurus
[4] = system: Nucleic Acid; experiment: Induction of supercoiled Escherichia coli pUC19 DNA cleavage assessed as formation of open-circular DNA at 357 uM after 36 hrs by agarose gel electrophoresis in presence of singlet oxygen scavenger NaN3
[5] = system: Nucleic Acid; experiment: Induction of supercoiled Escherichia coli pUC19 DNA cleavage assessed as formation of open-circular DNA at 357 uM after 36 hrs by agarose gel electrophoresis in presence of hydroxyl radical scavenger DMSO
[6] = system: Nucleic Acid; experiment: Induction of supercoiled Escherichia coli pUC19 DNA cleavage assessed as formation of open-circular DNA at 286 uM by agarose gel electrophoresis; settings: TDE = time-dependent effect
[7] = system: Nucleic Acid; experiment: Induction of supercoiled Escherichia coli pUC19 DNA cleavage assessed as formation of open-circular DNA at 71 uM after 36 hrs by agarose gel electrophoresis
[8] = system: Nucleic Acid; experiment: Induction of supercoiled Escherichia coli pUC19 DNA cleavage assessed as formation of open-circular DNA at 143 uM after 36 hrs by agarose gel electrophoresis
[9] = system: Nucleic Acid; experiment: Induction of supercoiled Escherichia coli pUC19 DNA cleavage assessed as formation of open-circular DNA at 357 uM after 32 hrs by agarose gel electrophoresis
[10] = system: Nucleic Acid; experiment: Induction of supercoiled Escherichia coli pUC19 DNA cleavage assessed as formation of open-circular DNA at 0.285 mM after 36 hrs by TBARS method in presence of hydroxy radical
[11] = system: Nucleic Acid; experiment: Induction of supercoiled Escherichia coli pUC19 DNA cleavage assessed as formation of open-circular DNA at 214 uM after 36 hrs by agarose gel electrophoresis
[12] = system: Nucleic Acid; experiment: Induction of supercoiled Escherichia coli pUC19 DNA cleavage assessed as formation of open-circular DNA at 286 uM after 36 hrs by agarose gel electrophoresis
[13] = system: Nucleic Acid; experiment: Induction of supercoiled Escherichia coli pUC19 DNA cleavage assessed as formation of open-circular DNA at 357 uM after 36 hrs by agarose gel electrophoresis in presence of […]
[14] = system: Nucleic Acid; experiment: Induction of supercoiled Escherichia coli pUC19 DNA cleavage assessed as formation of open-circular DNA at 357 uM after 36 hrs by agarose gel electrophoresis in presence of hydroxyl radical scavenger t-BuOH

| Structure (SMILES) | Activity [1] | Activity [2] | Tm [3] | Activity [4] | Activity [5] | Activity [6] | Activity [7] | Activity [8] | Activity [9] | Activity [10] | Activity [11] | Activity [12] | Activity [13] | Activity [14] |
| --- | --- | --- | --- | --- | --- | --- | --- | --- | --- | --- | --- | --- | --- | --- |
| COC(=O)C(C)NC(=O)NC(C)C(=O)OC (stereo not given) | Active | Active | 76.6 °C | – | – | – | – | – | – | – | – | – | – | – |
| CCNC(=O)NC(C)C(=O)N1CCNCCNCCNCC1 (stereo not given) | Active | Active | 77.6 °C | – | – | – | – | – | – | – | – | – | – | – |
| CC(NC(=O)NC(C)C(=O)N1CCNCCNCCNCC1)C(=O)N1CCNCCNCCNCC1 (stereo not given) | 97% | Active | 75.7 °C | Active | Active | tde | 29% | 59% | 97% | Active | 72% | 89% | Active | Active |
